The test system of assay [1] is Mus musculus. In words: Antidepressant-like activity in the forced swimming test (FST) in mice at 10 mg/kg dose. It counts as functional.
The test system of assay [2] is Mus musculus. In words: Antidepressant-like activity in the forced swimming test (FST) in mice at 1 mg/kg dose. It is filed as functional.
Assay [3] deals with 5-hydroxytryptamine receptor 1D (Homo sapiens, UniProt P28221). In words: Affinity at 5-hydroxytryptamine 1D receptor (For sumatriptan = Ki (nM)-12+/-1.9).
Sequence of 5-hydroxytryptamine receptor 1D (P28221 whole entry): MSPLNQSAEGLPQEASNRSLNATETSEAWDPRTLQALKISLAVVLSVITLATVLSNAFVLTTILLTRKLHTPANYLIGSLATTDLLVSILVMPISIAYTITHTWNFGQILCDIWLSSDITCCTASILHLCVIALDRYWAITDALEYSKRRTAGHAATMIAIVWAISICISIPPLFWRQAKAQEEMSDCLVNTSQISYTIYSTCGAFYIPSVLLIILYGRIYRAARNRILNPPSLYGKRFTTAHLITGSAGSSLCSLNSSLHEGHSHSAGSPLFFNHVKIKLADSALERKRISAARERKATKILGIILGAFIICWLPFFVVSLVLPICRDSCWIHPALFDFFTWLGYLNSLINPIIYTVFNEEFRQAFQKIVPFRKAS
Assay [4] has as its target 5-hydroxytryptamine receptor 2A (Rattus norvegicus, UniProt P14842). In words: Affinity at 5-hydroxytryptamine 2 receptor (For ketanserin = Ki(nM)= 0.7+/-0.09).
A further assay concerns the target D(2) dopamine receptor (Rattus norvegicus, UniProt P61169). In words: Affinity at dopamine D2 receptor, (For haloperidol Ki(nM)= 1.5+/-1.2).
Assay [5] addresses T1, Adrenergic receptor alpha-2 (Rattus norvegicus, UniProt P22086+P19328+P22909).
T1 sequence (P22086 whole entry): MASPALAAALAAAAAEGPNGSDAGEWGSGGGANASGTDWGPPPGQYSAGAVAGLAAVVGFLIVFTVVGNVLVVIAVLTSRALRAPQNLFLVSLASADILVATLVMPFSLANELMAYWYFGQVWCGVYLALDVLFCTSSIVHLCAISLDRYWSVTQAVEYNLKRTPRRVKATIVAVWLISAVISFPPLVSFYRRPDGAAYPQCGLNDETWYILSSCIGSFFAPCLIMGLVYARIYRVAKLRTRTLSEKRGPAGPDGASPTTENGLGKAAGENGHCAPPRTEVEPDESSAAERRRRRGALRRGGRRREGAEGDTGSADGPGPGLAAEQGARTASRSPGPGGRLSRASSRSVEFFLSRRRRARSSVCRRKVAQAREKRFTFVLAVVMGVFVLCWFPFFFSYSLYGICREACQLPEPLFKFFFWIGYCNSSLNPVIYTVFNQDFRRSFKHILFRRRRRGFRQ
T1 sequence (P19328 whole entry): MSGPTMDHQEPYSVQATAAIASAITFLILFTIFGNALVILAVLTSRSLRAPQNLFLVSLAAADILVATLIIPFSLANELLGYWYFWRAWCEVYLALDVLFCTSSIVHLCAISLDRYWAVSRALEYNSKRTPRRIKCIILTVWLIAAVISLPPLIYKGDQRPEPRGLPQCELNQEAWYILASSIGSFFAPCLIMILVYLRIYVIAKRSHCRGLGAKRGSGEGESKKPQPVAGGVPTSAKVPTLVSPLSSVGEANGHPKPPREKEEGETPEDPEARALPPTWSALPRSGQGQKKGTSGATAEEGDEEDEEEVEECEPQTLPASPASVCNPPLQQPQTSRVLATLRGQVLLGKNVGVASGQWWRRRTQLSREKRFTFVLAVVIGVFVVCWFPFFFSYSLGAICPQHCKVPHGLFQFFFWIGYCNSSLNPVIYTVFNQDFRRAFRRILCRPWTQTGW
T1 sequence (P22909 whole entry): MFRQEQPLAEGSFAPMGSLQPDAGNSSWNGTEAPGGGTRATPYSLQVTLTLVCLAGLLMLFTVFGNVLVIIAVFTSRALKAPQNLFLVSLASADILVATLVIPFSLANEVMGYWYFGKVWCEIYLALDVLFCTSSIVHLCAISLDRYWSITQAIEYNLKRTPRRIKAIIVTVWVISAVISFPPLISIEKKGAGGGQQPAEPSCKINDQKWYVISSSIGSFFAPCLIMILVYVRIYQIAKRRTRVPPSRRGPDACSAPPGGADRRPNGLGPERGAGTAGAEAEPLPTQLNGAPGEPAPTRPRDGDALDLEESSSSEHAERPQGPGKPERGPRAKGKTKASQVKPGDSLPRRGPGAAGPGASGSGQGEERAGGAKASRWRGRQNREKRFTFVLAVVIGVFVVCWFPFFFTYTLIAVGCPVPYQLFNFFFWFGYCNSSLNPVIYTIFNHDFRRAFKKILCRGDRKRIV
In words: Affinity towards alpha-2 adrenergic receptor (For clonidine Ki(nM)= […]+/-[…]). It is filed as protein assay.

A further assay has as its target Adrenergic receptor beta (Rattus norvegicus, UniProt P18090+P10608+P26255). In words: Affinity at beta-adrenoceptor (For DHA Ki(nM)= 3.5+/-0.3). It is filed as protein assay.
Assay [6] concerns Rattus norvegicus. In words: Effect on helpless behavior in rats and the number of escape failures was determined in shuttle-box session-2 (SB-2) at 10 mg/kg dose. It is filed as functional.
The subject of assay [7] is Mus musculus. In words: Antidepressant-like activity in the forced swimming test (FST) in mice at 0.001 mg/kg dose; Antidepressant like activity. It is filed as functional.
The test system of assay [8] is Mus musculus. In words: Time-dependent effect on 8-OH-DPAT-induced hypothermia (change in body temperature) after 15 min, in mice at 0.01 mg/kg dose. It counts as functional.
Assay [9] relates to Mus musculus. In words: Effect on immobility time in the forced swimming test (FST) in mice at 0.001 mg/kg dose. It counts as functional.
The subject of assay [10] is Rattus norvegicus. In words: Effect on helpless behavior in rats and the number of escape failures was determined in shuttle-box session-3 (SB-) at 1 mg/kg dose. It counts as functional.
Assay [11] relates to Rattus norvegicus. In words: Effect on helpless behavior in rats and the number of escape failures was determined in shuttle-box session-3 (SB-3) at 10 mg/kg dose. It is filed as functional.
Assay [12] concerns Rattus norvegicus. In words: Effect on helpless behavior in rats and the number of escape failures was determined in shuttle-box session-1 (SB-1) at 10 mg/kg dose. It is filed as functional.

The source of these data is ChEMBL document CHEMBL1134339, “New 1-aryl-3-(4-arylpiperazin-1-yl)propane derivatives, with dual action at 5-HT1A serotonin receptors and serotonin transporter, as a new class of antidepressants” (J Med Chem, 2001).

As usually defined, the Ki is a dissociation constant, usually derived from enzyme kinetics or from competition with a known ligand. A high value points to weaker binding.

Sequence of 5-hydroxytryptamine receptor 2A (P14842 whole entry): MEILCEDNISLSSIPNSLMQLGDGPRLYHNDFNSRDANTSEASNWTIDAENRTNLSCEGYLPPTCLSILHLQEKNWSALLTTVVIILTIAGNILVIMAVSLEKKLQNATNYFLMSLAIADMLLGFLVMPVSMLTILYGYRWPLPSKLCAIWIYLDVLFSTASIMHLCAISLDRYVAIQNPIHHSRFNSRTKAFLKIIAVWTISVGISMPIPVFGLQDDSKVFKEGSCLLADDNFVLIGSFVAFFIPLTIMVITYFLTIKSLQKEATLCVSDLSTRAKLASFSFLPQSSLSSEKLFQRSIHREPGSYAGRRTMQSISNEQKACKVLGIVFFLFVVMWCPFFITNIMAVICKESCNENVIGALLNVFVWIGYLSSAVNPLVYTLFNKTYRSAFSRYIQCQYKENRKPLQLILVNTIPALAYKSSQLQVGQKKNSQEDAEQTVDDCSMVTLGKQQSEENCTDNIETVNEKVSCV
Sequence of D(2) dopamine receptor (P61169 whole entry): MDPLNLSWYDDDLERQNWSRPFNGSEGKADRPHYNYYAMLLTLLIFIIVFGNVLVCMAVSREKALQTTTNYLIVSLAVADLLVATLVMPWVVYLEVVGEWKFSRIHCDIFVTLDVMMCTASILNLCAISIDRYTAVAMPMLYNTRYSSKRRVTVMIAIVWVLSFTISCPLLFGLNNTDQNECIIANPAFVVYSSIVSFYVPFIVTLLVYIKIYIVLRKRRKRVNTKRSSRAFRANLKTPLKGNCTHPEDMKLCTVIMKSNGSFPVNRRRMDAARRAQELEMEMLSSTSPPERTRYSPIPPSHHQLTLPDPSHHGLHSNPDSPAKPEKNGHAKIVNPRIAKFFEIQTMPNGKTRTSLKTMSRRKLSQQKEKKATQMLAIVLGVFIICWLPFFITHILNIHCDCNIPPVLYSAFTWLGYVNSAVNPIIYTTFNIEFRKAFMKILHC

As for `COc1ccccc1N1CCN(CCC(=O)c2csc3ccccc23)CC1`, the Activity in the assay on Mus musculus [1] was 54%; in the assay on Mus musculus [2], 60%. For the same compound, the Ki is 5 µM in assay [3]; 5 µM in assay [4]; 0.5 µM at D(2) dopamine receptor; 0.28 µM in assay [5]; greater than 5 µM at Adrenergic receptor beta.
As for `COc1ccccc1N1CCN(CCC(O)c2csc3ccccc23)CC1` (centres undefined), the “No. of escape failures” value in the assay with Rattus norvegicus [6] was 3.2; in the assay with Rattus norvegicus [10] it was 1.8; with Rattus norvegicus [11], 4; with Rattus norvegicus [12] it was 6.6. The Activity with Mus musculus [7] was determined as 67%. Further, the Temperature change in the assay on Mus musculus [8] is -1.26 °C. The Immobility time in the assay with Mus musculus [9] is less than 58.8 s.
